# Measured values: patent US5766848A (Synaptic Pharmaceutical Corporation, priority 1994, dated 1998)
# Several values for one entry are separate records, joined by “and”; a condition that tells them apart may be missing. Identical values can stand only once. Counter-ions that a name gives are not always drawn. Like-named read-outs stand apart in the source and are kept apart here.
# How the values were obtained:
# dog BGT-1 = conditions: read-out: IC50, dog VGT-1, inhibition of [3H]GABA uptake; oocytes (Yamauchi et al., 1992); except GABA estimated from percent inhibition at a single concentration; cited from earlier work
# human BGT-1 [1] = target: T1, human BGT-1 (Homo sapiens, UniProt P48065); experiment: cell-based
# T1 sequence (P48065 1-614 C10Y): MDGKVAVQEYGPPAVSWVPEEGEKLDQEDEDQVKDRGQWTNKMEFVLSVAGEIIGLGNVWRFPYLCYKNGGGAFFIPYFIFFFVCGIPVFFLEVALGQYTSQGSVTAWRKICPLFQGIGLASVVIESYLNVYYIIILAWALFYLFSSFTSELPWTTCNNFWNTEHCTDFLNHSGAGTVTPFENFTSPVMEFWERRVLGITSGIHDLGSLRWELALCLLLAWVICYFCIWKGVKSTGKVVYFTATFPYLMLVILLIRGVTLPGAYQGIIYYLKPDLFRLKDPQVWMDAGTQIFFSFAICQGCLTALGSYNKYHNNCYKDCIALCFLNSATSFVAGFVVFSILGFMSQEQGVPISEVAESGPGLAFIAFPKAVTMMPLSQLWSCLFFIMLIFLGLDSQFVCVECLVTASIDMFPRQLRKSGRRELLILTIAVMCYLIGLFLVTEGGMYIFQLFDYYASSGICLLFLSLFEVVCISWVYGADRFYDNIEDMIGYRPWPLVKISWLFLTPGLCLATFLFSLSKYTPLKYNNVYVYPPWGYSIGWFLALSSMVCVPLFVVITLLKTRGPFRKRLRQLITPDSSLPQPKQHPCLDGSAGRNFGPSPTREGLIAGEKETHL
# Experimental: (§2) Cells were grown under standard conditions (37° C., 5% CO2) in Dulbecco's modified Eagles's medium (GIBCO, Grand Island, N.Y.).
# (§3) After 10 minutes the medium was removed and unlabeled drugs in HBS were added (450 μl/well). […] Plates were incubated at 37° C. for 10 minutes, then washed rapidly 3× with ice-cold HBS, using a 24-position plate washer (Brandel, Gaithersburg, Mass.; model PW-12). Cells were solubilized with 0.05% sodium deoxycholate/0.1N NaOH (0.25 ml/well), an aliquot neutralized with 1N HCl, and radioactivity was determined by scintillation counting. Protein was quantified in an aliquot of the solubilized cells using a BIO-RAD protein assay kit, according to the manufacturer's directions.
# (§4) Data Analysis: Competition curves were conducted in duplicate, using 10 concentrations of unlabeled drug. […] All data throughout the paper represent means±SEM.
# (§5) Cells were grown under standard conditions (37° C., 5% CO2) in DMEM (Dulbecco's modified Eagles's medium; GIBCO, Grand Island, N.Y.).
# (§6) Cells grown in 24-well plates were washed 3× with HEPES-buffered saline (HBS, in mM: NaCl, 150; HEPES, 20; CaCl2, 1; glucose, 10; KCl, 5; MgCl2 1; pH 7.4) and allowed to equilibrate on a 37° C. slide warmer. After 10 minutes the medium was removed and unlabeled drugs in HBS were added (450 μl/well). […] Plates were incubated at 37° C. for 10 minutes, then washed rapidly 3× with ice-cold HBS, using a 24-position plate washer (Brandel, Gaithersburg, Mass.; model PW-12). Cells were solubilized with 0.05% sodium deoxycholate/0.1N NaOH (0.25 ml/well), an aliquot neutralized with 1N HCl, and radioactivity was determined by scintillation counting. Protein was quantified in an aliquot of the solubilized cells using a BIO-RAD protein assay kit, according to the manufacturer's directions.
# (§7) Competition curves were conducted in duplicate, using 10 concentrations of unlabeled drug. […] All data throughout the paper represent means±S.E.M.
# Type 1 astrocytes = experiment: Inhibition of [3H]GABA uptake in Type 1 astrocyte cultures; type: cell-based, rat; conditions: read-out: IC50, Type 1 astrocytes, inhibition of [3H]GABA uptake
# Experimental: Preparation of primary rat astrocyte cell cultures: Primary glial cultures were established from newborn Sprague-Dawley rat brains. Brains minus cerebella were removed aseptically and carefully dissected free of meninges. […] The cells were dissociated by trituration through a serological pipet. Separate procedures were then used for the preparation of Type-1 and O-2A/Type-2 astrocyte cultures, as will now be described.
# For the preparation of Type-1 astrocyte cultures, cells were plated onto uncoated 75 cm^2 flasks at low density (1 brain per 10 flasks, or approximately 8×10^4 cells/cm^2). The medium was changed the following day and twice a week thereafter.
# (§1) Data represent means±SEM.
# neuronal cultures = experiment: Inhibition of [3H]GABA uptake in primary rat neuronal cultures; type: cell-based
# Experimental: Brains were removed aseptically from E17 embryonic Sprague-Dawley rats brains, carefully dissected free of meninges, and kept on ice. A single-cell suspension was made by mincing the brains, followed by trituration through a serological pipet. […] On day three cytosine β-D-arabinofuransoside (3 μM) was added to control the proliferation of non-neuronal cells. The cultures were used for transport assay approximately one week after plating.
# as §1
# human GAT-3 = target: T2, human GAT-3 (Homo sapiens, UniProt P48066); experiment: Inhibition of [3H]GABA uptake, human GAT-3 stable LM(tk-) cell line; type: cell-based; conditions: read-out: IC50, human GAT-3, inhibition of [3H]GABA uptake, Table 9, means ± S.E.M.
# T2 construct: expressed in transfected cells
# T2 sequence (P48066 1-632): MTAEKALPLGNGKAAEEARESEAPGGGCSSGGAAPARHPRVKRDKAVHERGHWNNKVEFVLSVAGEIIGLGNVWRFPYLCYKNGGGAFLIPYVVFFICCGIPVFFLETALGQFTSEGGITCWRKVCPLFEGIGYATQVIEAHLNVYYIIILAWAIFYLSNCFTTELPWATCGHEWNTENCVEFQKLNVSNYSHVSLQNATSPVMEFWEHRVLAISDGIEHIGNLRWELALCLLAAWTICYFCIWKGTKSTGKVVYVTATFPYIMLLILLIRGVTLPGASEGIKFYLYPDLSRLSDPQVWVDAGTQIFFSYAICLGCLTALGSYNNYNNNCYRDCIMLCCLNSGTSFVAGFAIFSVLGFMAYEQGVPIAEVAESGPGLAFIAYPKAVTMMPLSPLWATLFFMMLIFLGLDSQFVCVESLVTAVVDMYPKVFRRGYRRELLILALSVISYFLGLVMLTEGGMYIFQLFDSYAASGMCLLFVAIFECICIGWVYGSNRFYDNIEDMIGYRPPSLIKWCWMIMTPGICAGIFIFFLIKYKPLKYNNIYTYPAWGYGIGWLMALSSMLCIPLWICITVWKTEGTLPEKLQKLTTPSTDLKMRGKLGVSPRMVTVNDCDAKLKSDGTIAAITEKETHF
# Experimental: as §5, §6, §7
# brain synaptosomes = conditions: Ali et al. (1985); cited from earlier work
# [2] = literature reports; cited from earlier work
# rat GAT-2 = target: T3, rat GAT-2 (Rattus norvegicus, UniProt P31646); experiment: Inhibition of [3H]GABA uptake, rat GAT-2 stable LM(tk-) cell line; type: cell-based; conditions: read-out: IC50, rat GAT-2, inhibition of [3H]GABA uptake, Table 9, means ± S.E.M.
# T3 construct: expressed in transfected cells
# T3 sequence (P31646 1-602): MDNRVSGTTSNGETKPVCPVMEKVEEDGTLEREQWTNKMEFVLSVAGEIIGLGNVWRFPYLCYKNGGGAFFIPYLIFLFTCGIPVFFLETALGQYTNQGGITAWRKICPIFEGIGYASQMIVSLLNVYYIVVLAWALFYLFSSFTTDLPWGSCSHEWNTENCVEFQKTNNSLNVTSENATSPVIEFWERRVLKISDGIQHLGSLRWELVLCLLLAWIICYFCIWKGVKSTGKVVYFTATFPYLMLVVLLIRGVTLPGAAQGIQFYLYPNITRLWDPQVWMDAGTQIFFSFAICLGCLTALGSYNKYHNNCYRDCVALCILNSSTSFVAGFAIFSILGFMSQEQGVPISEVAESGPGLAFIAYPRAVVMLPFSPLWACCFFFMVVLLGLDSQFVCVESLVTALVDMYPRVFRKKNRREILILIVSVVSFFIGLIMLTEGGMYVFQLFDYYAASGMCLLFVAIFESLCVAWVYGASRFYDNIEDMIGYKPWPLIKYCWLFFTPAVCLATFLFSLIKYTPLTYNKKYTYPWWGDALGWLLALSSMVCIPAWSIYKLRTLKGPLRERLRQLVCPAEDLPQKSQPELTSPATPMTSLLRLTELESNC
# Experimental: as §5, §6, §7
# human BGT-1 [3] = target: T1, human BGT-1
# Experimental: as §2, §3, §4, §5, §6, §7
# [4] = Phase II clinical trials; cited from earlier work
# mouse GAT-2 [5] = target: T4, mouse GAT-2 (Mus musculus, UniProt P31651); design: host or cells: oocytes (Lopez-Corcuera et al., 1992); conditions: read-out: IC50, mouse GAT-2, inhibition of [3H]GABA uptake; oocytes (Lopez-Corcuera et al., 1992); except GABA estimated from percent inhibition at one or two concentrations; cited from earlier work
# T4 sequence (P31651 1-614): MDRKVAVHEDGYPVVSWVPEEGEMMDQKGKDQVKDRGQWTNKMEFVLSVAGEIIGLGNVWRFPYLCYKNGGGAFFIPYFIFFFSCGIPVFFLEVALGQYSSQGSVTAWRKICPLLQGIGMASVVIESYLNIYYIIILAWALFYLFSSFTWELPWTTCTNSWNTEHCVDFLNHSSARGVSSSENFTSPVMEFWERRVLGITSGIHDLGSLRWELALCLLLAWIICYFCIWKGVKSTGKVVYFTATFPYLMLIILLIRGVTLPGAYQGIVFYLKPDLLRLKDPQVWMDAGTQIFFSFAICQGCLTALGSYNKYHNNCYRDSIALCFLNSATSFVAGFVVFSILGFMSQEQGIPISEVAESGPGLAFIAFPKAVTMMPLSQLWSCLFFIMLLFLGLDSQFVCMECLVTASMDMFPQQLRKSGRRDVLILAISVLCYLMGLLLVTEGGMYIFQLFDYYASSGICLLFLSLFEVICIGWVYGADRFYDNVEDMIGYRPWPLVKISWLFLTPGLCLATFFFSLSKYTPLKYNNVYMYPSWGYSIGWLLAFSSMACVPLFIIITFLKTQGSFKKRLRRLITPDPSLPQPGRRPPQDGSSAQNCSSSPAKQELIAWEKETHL
# mouse GAT-2 [6] = target: T4, mouse GAT-2; conditions: from Table 1
# human GAT-1 = human GAT-1 (Homo sapiens, UniProt P30531); conditions: read-out: IC50, human GAT-1, inhibition of [3H]GABA uptake; Table 9; stable LM(tk-) cell line; means ± S.E.M.
# Chain of human GAT-1 (P30531 whole entry): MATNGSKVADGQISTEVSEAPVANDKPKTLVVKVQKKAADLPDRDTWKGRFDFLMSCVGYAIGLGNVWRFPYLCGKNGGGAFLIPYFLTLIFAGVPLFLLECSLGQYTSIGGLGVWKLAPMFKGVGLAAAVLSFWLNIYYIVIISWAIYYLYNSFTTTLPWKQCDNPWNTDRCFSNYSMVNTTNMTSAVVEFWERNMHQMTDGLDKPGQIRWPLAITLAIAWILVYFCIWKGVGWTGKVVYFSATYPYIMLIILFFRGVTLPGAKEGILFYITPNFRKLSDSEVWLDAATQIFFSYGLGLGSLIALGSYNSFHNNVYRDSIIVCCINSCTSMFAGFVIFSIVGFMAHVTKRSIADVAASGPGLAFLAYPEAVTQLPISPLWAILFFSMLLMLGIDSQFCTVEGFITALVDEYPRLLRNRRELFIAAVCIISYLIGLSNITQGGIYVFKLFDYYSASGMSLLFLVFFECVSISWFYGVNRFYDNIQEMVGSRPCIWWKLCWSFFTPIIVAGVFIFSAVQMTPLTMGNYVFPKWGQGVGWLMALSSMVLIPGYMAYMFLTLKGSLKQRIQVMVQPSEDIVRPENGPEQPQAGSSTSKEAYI
# Experimental: as §5, §6, §7
# GAT-1 = conditions: range over compounds and human/rat clones
# Experimental: as §5, §6, §7
# GAT-2 and GAT-3 [7] = conditions: range over clones, regardless of species
# Experimental: as §5, §6, §7
# rat brain aggregates = experiment: Inhibition of [3H]GABA uptake in rat brain aggregates; type: cell-based; conditions: read-out: IC50, control, inhibition of [3H]GABA uptake in rat brain aggregates
# Experimental: Briefly, adult rat brains were removed from the skull and the cerebral cortex was dissected and placed in ice-cold HBS. […] The preparation was washed once by centrifugation, then resuspended in HBS.
# The filters were washed with ice-cold HBS, punched into vials, and radioactivity determined by scintillation counting. Protein was determined in an aliquot of the aggregate preparation using the BIO-RAD protein assay kit.
# as §1
# GAT-2 and GAT-3 [8] = experiment: Inhibition of [3H]GABA uptake at cloned GAT-2 and GAT-3, text summary; conditions: read-out: IC50s at GAT-2 and GAT-3 (range); range over clones, regardless of species
# Experimental: as §5, §6, §7
# [9] = IC50, hBGT-1, inhibition of [3H]GABA uptake
# [10] = IC50, hBGT-1, inhibition of [3H]GABA uptake, stably transfected LM(tk-), 50 nM [3H]GABA, mean ± standard error of at least three experiments
# [11] = Rattus norvegicus, Astrocyte, 3 h
molecule,measurement,setting,value
"O=C(O)C1CCCNC1 (racemic) [(±)-nipecotic acid, (R,S)-nipecotic acid]",IC50,dog BGT-1,4700 µM
"N[C@@H]1CCC[C@H](C(=O)O)C1 (relative stereo) [ACHC, cis-3-aminocyclohexanecarboxylic acid]",IC50,human BGT-1 [1]; [9],1850 µM
"N=C(N)NCCS(=O)(=O)O [GES, guanidinoethanesulfonic acid]",IC50,human BGT-1 [1]; [10],1520 µM
"NCC[C@H](N)C(=O)O [L-DABA, L-(2,4)diaminobutyric acid]",IC50,Type 1 astrocytes; [11],3400 µM
same,IC50,dog BGT-1,4700 µM
same,IC50,human BGT-1 [1]; [9],160 to 600 µM and 354 µM
"O=C(O)C1=CCCN(CCON=C(c2ccccc2)c2ccccc2)C1 [NNC-711, 1-(2-(((diphenylmethylene)amino)oxy)ethyl)-1,2,4,6-tetrahydro-3-pyridinecarboxylic acid hydrochloride]",activity at 10 µM,neuronal cultures; read-out: specific [3H]GABA uptake that persisted in neuronal cultures,31 ± 1%
same,IC50,human BGT-1 [1]; [10],160 to 600 µM
"O=C(O)C1CCCN(CCC=C(c2ccccc2)c2ccccc2)C1 (stereo not drawn) [SK&F 89976-A, N-(4,4-diphenyl-3-butenyl)-3-piperidinecarboxylic acid]",IC50,human GAT-3,944 ± 259 µM
same,increase in potency over the parent compound (nipecotic acid or guvacine),brain synaptosomes,20 fold
same,anticonvulsive activity in animals,[2],display anticonvulsive activity
O=C(O)C1=CCCN(CCC=C(c2ccccc2)c2ccccc2)C1 [SK&F 100330-A],increase in potency over the parent compound (nipecotic acid or guvacine),brain synaptosomes,20 fold
"Cc1ccsc1C(=CCCN1CCC[C@@H](C(=O)O)C1)c1sccc1C [Tiagabine, (R)-1-[4,4-Bis(3-methyl-2-thienyl)-3-butenyl]-3-piperidencarboxylic acid]",IC50,rat GAT-2,1410 ± 250 µM
same,IC50,human GAT-3,917 ± 193 µM
same,IC50,"human BGT-1 [3]; read-out: IC50, human BGT-1, inhibition of [3H]GABA uptake, Table 9, stable LM(tk-) cell line, means ± S.E.M.",1670 ± 722 µM
same,anticonvulsive activity in animals,[2],display anticonvulsive activity
same,anti-seizure activity in patients,[4],demonstrated anti-seizure activity
C[N+](C)(C)CC(=O)O [betaine],IC50,human BGT-1 [1]; [10],934 ± 22 µM
same,IC50,"human BGT-1 [1]; IC50 at hBGT-1 as stated in text, stable LM(tk-) cells, [3H]GABA uptake",1000 to 2000 µM
same,IC50,mouse GAT-2 [5],206 µM
same,selectivity (potency) for mouse BGT-1 as compared to dog BGT-1,mouse GAT-2 [6],2 fold
same,selectivity (potency) for mouse BGT-1 as compared to human BGT-1,mouse GAT-2 [6],5 fold
O=C(O)C1=CCCNC1 [guvacine],IC50,rat GAT-2,58 ± 5 µM
same,IC50,human GAT-3,119 ± 24 µM
same,IC50,human GAT-1,14 ± 3 µM
same,IC50s at GAT-1 (range),GAT-1,14 to 39 µM
same,IC50s at GAT-2 and GAT-3 (range),GAT-2 and GAT-3 [7],102 to 378 µM
same,IC50,mouse GAT-2 [5],2800 µM
NCCS(=O)O [hypotaurine],IC50,human BGT-1 [1]; [9],160 to 600 µM and 380 µM
O=C(CCc1ccc(O)cc1)c1c(O)cc(O)cc1O [phloretin],IC50,human BGT-1 [1]; [10],160 to 600 µM and 160 µM
C=C[C@H]1C[N@@]2CC[C@H]1C[C@@H]2[C@@H](O)c1ccnc2ccc(OC)cc12 [quinidine],IC50,human BGT-1 [1]; [9],1190 µM
same,IC50,mouse GAT-2 [5],49 µM
NCCS(=O)(=O)O [taurine],IC50,"neuronal cultures; Neuron, read-out: IC50, Neurons, inhibition of [3H]GABA uptake",8300 µM
same,IC50,Type 1 astrocytes; [11],~50 µM
same,IC50,Type 1 astrocytes,47 ± 10 µM
same,IC50,rat brain aggregates; Rattus norvegicus,64000 µM
same,IC50,human BGT-1 [1]; [9],10600 µM
same,IC50,human BGT-1 [1]; IC50 at hBGT-1 as stated in text,> 10000 µM
NCCC(=O)O [β-alanine],IC50,mouse GAT-2 [5],1900 µM
same,IC50,GAT-2 and GAT-3 [8],19 to 110 µM
hydroxynipecotic acid,IC50,rat brain aggregates; absence of NNC-711,10 ± 1 µM
same,IC50,"human BGT-1 [3]; read-out: IC50, hBGT-1, inhibition of [3H]GABA uptake",2590 µM
